*1 amine or outer side, *2 acyl side, *3 side chain or, on linkers, in order; H or OH if unused. Where a SMILES comes first, the peptide text is derived from it. Bridges are numbered along the chain shown (N, C = ends). [ ]: non-standard residue; d: D form. X6 = O=C([C@H](Cc1c[nH]c2c(-c3cccc(OC(F)(F)F)c3)cccc12)N[*:1])[*:2]; X8 = COc1cccc(-c2cccc3c(C[C@H](N[*:1])C(=O)[*:2])c[nH]c23)c1; X7 = O=C([C@H](Cc1c[nH]c2cc(-c3ccccc3)ccc12)N[*:1])[*:2]; Trp(7-Ph) = N[C@@H](Cc1c[nH]c2c(-c3ccccc3)cccc12)C(=O)O; Abu(4-yl) = O=C([C@H](CC[*:3])N[*:1])[*:2]; 2Nal = N[C@@H](Cc1ccc2ccccc2c1)C(=O)O; AEF = NCCOc1ccc(C[C@H](N)C(=O)O)cc1; Pen = CC(C)(S)[C@H](N)C(=O)O; αMeK = C[C@](N)(CCCCN)C(=O)O Some results are limits rather than exact numbers.

Consider seven compounds from patent US20230129095A1, “PEPTIDE INHIBITORS OF INTERLEUKIN-23 RECEPTOR AND THEIR USE TO TREAT INFLAMMATORY DISEASES” (Protagonist Therapeutics, Inc., priority 2020, published 2023).

Format in all cases: in vitro ADME
The nature of series [1]: Stability in human fecal homogenate (anaerobic). The settings on record: pH 6.8, 20% human fecal homogenate, 37° C., up to 24 hours, read-out: t1/2: Human Feces anaerobic. On the procedure:
(§1) Studies were carried out in human or cynomolgus monkey fecal homogenate to evaluate gastrointestinal stability of the peptide inhibitors of the present invention.
(§2) Fecal homogenate ([…]) was prepared by adding 4 mL of growth medium (1 liter contains 2 g peptone water powder, 2 g yeast extract, 0.1 g NaCl, 0.04 g KH2PO4, 0.01 g CaCl2.6H2O, 0.01 g MgSO4.7H2O, 2 mL Tween 80, 0.5 g bile salts, 0.5 g L-cysteine HCl, 2 g NaHCO3, and 10 μL Vitamin K, pH adjusted to 6.8, and sterilized by filtration through a 0.22 μm filter) to every gram of feces (pooled freshly collected human or cynomolgus monkey feces). The suspension was vortexed to break up large clumps, and homogenized using a bead mill homogenizer. Centrifuged the homogenate at 2800×g for 15 min. The supernatant is taken out and used for incubations. DMSO stocks (10 mM) were first prepared for the test compounds. Incubations were performed in an anaerobic chamber conditioned at 37° C. Aliquots of the DMSO solutions were dosed into 1.0 mL aliquots of 20% fecal homogenate, which are pre-warmed to 37° C. The final test compound concentration was 20 μM. At each timepoint (0, 20 min, 1, 3, 6, or 24 hours), 100 μL aliquot of each incubation mixture is taken out and added to separate tubes containing 300 μL of 50% acetonitrile/50% methanol and an internal standard to terminate the reaction. Samples were taken out of the anaerobic chamber and stored at 4° C. until the end of the experiment. After the final timepoint is sampled, the tubes were mixed and then centrifuged at 3,000 rpm for 10 minutes. Aliquots of the supernatant were removed, diluted 1:1 into distilled water containing 0.1% formic acid, and analyzed by LC/MS/MS. Percent remaining at each timepoint was calculated based on the peak area response ratio of test to compound to internal standard. Time 0 was set to 100%, and all later timepoints were calculated relative to time 0. Half-lives were calculated by fitting to a first-order exponential decay equation using Graphpad or Excel.

A short description of series [2]: Stability in simulated intestinal fluid (SIF). As to conditions: 37° C.; for SIF t1/2: 100 fold dilution of standard SIF concentration, 20 μM; for half-life at 20 μM: pH 6.8, 100 fold dilution of standard SIF concentration, read-out: SIF t1/2 (converted). As for the experimental part: Studies were carried out in simulated intestinal fluid (SIF) and simulated gastric fluid (SGF) to evaluate gastric stability of the peptide inhibitors of the present invention. In addition, studies were carried out to assess redox stability of the peptide inhibitors of the present invention.
SIF was prepared by adding 6.8 g of monobasic potassium phosphate and 10.0 g of pancreatin to 1.0 L of water. After dissolution, the pH was adjusted to 6.8 using NaOH. DMSO stocks (2 mM) were first prepared for the test compounds. Aliquots of the DMSO solutions were dosed into 6 individual tubes, each containing 0.5 mL of SIF, which is pre-warmed to 37° C. The final test compound concentration was 20 μM. The vials were kept in a benchtop Thermomixer® for the duration of the experiment. At each timepoint (0, 5, 10, 20, 40, 60, or 360 minutes or 24 hours), 1.0 mL of acetonitrile containing 1% formic acid was added to one vial to terminate the reaction. Samples were stored at 4° C. until the end of the experiment. After the final timepoint is sampled, the tubes were mixed and then centrifuged at 3,000 rpm for 10 minutes. Aliquots of the supernatant were removed, diluted 1:1 into distilled water containing internal standard, and analyzed by LCMS/MS. Percent remaining at each timepoint was calculated based on the peak area response ratio of test to compound to internal standard. Time 0 was set to 100%, and all later timepoints were calculated relative to time 0. Half-lives were calculated by fitting to a first-order exponential decay equation using Graphpad.

Series [3] can be described thus: Stability in cynomolgus monkey fecal homogenate (anaerobic). The settings on record: pH 6.8, 20% cynomolgus monkey fecal homogenate, 37° C., up to 24 hours, read-out: t1/2: Monkey Feces anaerobic (converted). On the procedure: as §1, §2
The next series can be described thus: Stability in rat plasma. The settings on record: both sexes, pooled, SD rat plasma, EDTA, 37° C., up to 24 hours, read-out: t1/2: Rat Plasma EDTA. On the procedure:
Peptides of interest (20 μM) were incubated with pre-warmed rat plasma (SD rat, mixed gender pooled, EDTA, filtered through 0.22 μm, BioreclamationIVT) at 37° C. Aliquots were taken at various time points up to 24 hours (e.g. 0, 0.25, 1, 3, 6 and 24 hr), and immediately quenched with 4 volumes of organic solvent (acetonitrile/methanol (1:1) and 0.1% formic acid, containing 1 μM internal standard). Quenched samples were stored at 4° C. until the end of the experiment and centrifuged at 4,000 rpm for 10 minutes. The supernatant were diluted 1:1 with deionized water and analyzed using LC-MS. Percentage remaining at each time point was calculated based on the peak area ratio (analyte over internal standard) relative to the initial level at time zero. Half-lives were calculated by fitting to a first-order exponential decay equation using GraphPad.

Regarding `COc1cccc(-c2cccc3c(C[C@@H]4NC(=O)[C@H]([C@@H](C)O)NC(=O)[C@H](CC(N)=O)NC(=O)[C@@H](NC(C)=O)C(C)(C)SSC(C)(C)[C@@H](C(=O)N[C@@H](Cc5ccc(OCCN)cc5)C(=O)N[C@@H](Cc5ccc6ccccc6c5)C(=O)N[C@@](C)(CCCCN)C(=O)N[C@@H](CCCCNC(C)=O)C(=O)N[C@@H](CC(N)=O)C(=O)N[C@H](CCCCN)C(N)=O)NC(=O)[C@H](CCCCNC(C)=O)NC4=O)c[nH]c23)c1` [Peptide 8, Ac-[Pen]-N-T-[W(7-(3-OMePh))][Lys(Ac)]-[Pen]-Phe[4-(2-aminoethoxy)]-[2-Nal]-[a-MeLys]-[Lys(Ac)]-N-[(D)Lys)]-NH2] (Ac-[Pen]NT[X8]K(Ac)[Pen][AEF][2Nal][αMeK]K(Ac)N[dK]-NH2; disulfide 1-6), the half-life at 20 μM (in series [1]; in series [3]; in “Stability in rat plasma”) was > 24 h each time. The “SIF t1/2” value in series [2] was 24 h.

On to `CC(=O)NCCCC[C@@H]1NC(=O)[C@H](Cc2c[nH]c3c(-c4ccccc4)cccc23)NC(=O)[C@H]([C@@H](C)O)NC(=O)[C@H](CCC(N)=O)NC(=O)[C@@H](NC(=O)[C@@H](CCCNC(=N)N)NC(C)=O)CCSC[C@@H](C(=O)N[C@@H](Cc2ccc(OCCN)cc2)C(=O)N[C@@H](Cc2ccc3ccccc3c2)C(=O)N[C@@](C)(CCCCN)C(=O)N[C@@H](CCCCNC(C)=O)C(=O)N[C@@H](CC(N)=O)C(=O)N[C@H](CCCCN)C(N)=O)NC1=O` [Peptide 5, Ac-[(D)Arg]-[Abu]-Q-T-[W(7-Ph)]-[Lys(Ac)]-[Cys]-Phe[4-(2-aminoethoxy)]-[2-Nal]-[a-MeLys]-[Lys(Ac)]-N-[(D)Lys)]-NH2] (Ac-[dR][Abu(4-yl)]QT[Trp(7-Ph)]K(Ac)C[AEF][2Nal][αMeK]K(Ac)N[dK]-NH2; thioether 2-7), for which the half-life at 20 μM was > 24 h in series [1], 6 h in series [2], > 24 h in series [3] and > 24 h in “Stability in rat plasma”.

As to `CC(=O)NCCCC[C@@H]1NC(=O)[C@H](Cc2c[nH]c3cc(-c4ccccc4)ccc23)NC(=O)[C@H]([C@@H](C)O)NC(=O)[C@H](CC(N)=O)NC(=O)[C@@H](NC(C)=O)C(C)(C)SSC(C)(C)[C@@H](C(=O)N[C@@H](Cc2ccc(OCCN)cc2)C(=O)N[C@@H](Cc2ccc3ccccc3c2)C(=O)N[C@@](C)(CCCCN)C(=O)N[C@@H](CCCCNC(C)=O)C(=O)N[C@@H](CC(N)=O)C(=O)N[C@H](CCCCN)C(N)=O)NC1=O` [Peptide 6, Ac-[Pen]-N-T-[W(6-Ph)]-[Lys(Ac)]-[Pen]-Phe[4-(2-aminoethoxy)]-[2-Nal]-[a-MeLys]-[Lys(Ac)]-N-[(D)Lys)]-NH2] (Ac-[Pen]NT[X7]K(Ac)[Pen][AEF][2Nal][αMeK]K(Ac)N[dK]-NH2; disulfide 1-6), the half-life at 20 μM (in series [1]; in series [3]; in “Stability in rat plasma”) was > 24 h throughout. The “SIF t1/2” value in series [2] is 24 h.

For `CC(=O)NCCCC[C@@H]1NC(=O)[C@H](Cc2c[nH]c3c(-c4ccccc4)cccc23)NC(=O)[C@H]([C@@H](C)O)NC(=O)[C@H](CCC(N)=O)NC(=O)[C@@H](NC(=O)[C@@H](CCCNC(=N)N)NC(C)=O)CCSC[C@@H](C(=O)N[C@@H](Cc2ccc(OCCN)cc2)C(=O)N[C@@H](Cc2ccc3ccccc3c2)C(=O)N[C@@](C)(CCCCN)C(=O)N[C@@H](CCCCNC(C)=O)C(=O)N[C@@H](CC(N)=O)C(N)=O)NC1=O` [Peptide 4, Ac-[(D)Arg]-[Abu]-Q-T-[W(7-Ph)]-[Lys(Ac)]-[Cys]-Phe[4-(2-aminoethoxy)]-[2-Nal]-[a-MeLys]-[Lys(Ac)]-NNH2] (Ac-[dR][Abu(4-yl)]QT[Trp(7-Ph)]K(Ac)C[AEF][2Nal][αMeK]K(Ac)N-NH2; thioether 2-7), the half-life at 20 μM in series [1] was > 24 h; in series [2], 5.1 h; in series [3], 14.1 h; in the series “Stability in rat plasma”, > 24 h.

With `CC(=O)NCCCC[C@@H]1NC(=O)[C@H](Cc2c[nH]c3c(-c4cccc(OC(F)(F)F)c4)cccc23)NC(=O)[C@H]([C@@H](C)O)NC(=O)[C@H](CC(N)=O)NC(=O)[C@@H](NC(C)=O)C(C)(C)SSC(C)(C)[C@@H](C(=O)N[C@@H](Cc2ccc(OCCN)cc2)C(=O)N[C@@H](Cc2ccc3ccccc3c2)C(=O)N[C@@](C)(CCCCN)C(=O)N[C@@H](CCCCNC(C)=O)C(=O)N[C@@H](CC(N)=O)C(=O)N[C@H](CCCCN)C(N)=O)NC1=O` [Peptide 12, Ac-[Pen]-N-T-[W(7-(3-OCF3Ph))]-[Lys(Ac)]-[Pen]-Phe[4-(2-aminoethoxy)]-[2-Nal]-[a-MeLys]-[Lys(Ac)]-N-[(D)Lys)]-NH2] (Ac-[Pen]NT[X6]K(Ac)[Pen][AEF][2Nal][αMeK]K(Ac)N[dK]-NH2; disulfide 1-6), the values for the half-life at 20 μM (in series [1]; in series [3]; in “Stability in rat plasma”) were > 24 h, > 6 h and > 24 h, respectively. Moreover, in series [2], the “SIF t1/2” value was 24 h.

Regarding `CC(=O)NCCCC[C@@H]1NC(=O)[C@H](Cc2c[nH]c3c(-c4ccccc4)cccc23)NC(=O)[C@H]([C@@H](C)O)NC(=O)[C@H](CCC(N)=O)NC(=O)[C@@H](NC(=O)[C@@H](CCCNC(=N)N)NC(C)=O)CCSC[C@@H](C(=O)N[C@@H](Cc2ccc(OCCN)cc2)C(=O)N[C@@H](Cc2ccc3ccccc3c2)C(=O)N[C@@](C)(CCCCN)C(=O)N[C@@H](CCCCNC(C)=O)C(=O)N[C@@H](CC(N)=O)C(=O)N[C@H](CC(C)C)C(N)=O)NC1=O` [Peptide 3, Ac-[(D)Arg]-Abu-Q-T-[W(7-Ph)]-[Lys(Ac)]-[Cys]-Phe[4-(2-aminoethoxy)]-[2-Nal]-[a-MeLys]-[Lys(Ac)]-N-[(D)Leu]-NH2] (Ac-[dR][Abu(4-yl)]QT[Trp(7-Ph)]K(Ac)C[AEF][2Nal][αMeK]K(Ac)N[dL]-NH2; thioether 2-7), the half-life at 20 μM (in series [1]; in series [3]; in “Stability in rat plasma”) was > 24 h throughout. Further, in series [2], the “SIF t1/2” value is 24 h.

As to `CC(=O)NCCCC[C@@H]1NC(=O)[C@H](Cc2c[nH]c3c(-c4ccccc4)cccc23)NC(=O)[C@H]([C@@H](C)O)NC(=O)[C@H](CCC(N)=O)NC(=O)[C@@H](NC(C)=O)CCSC[C@@H](C(=O)N[C@@H](Cc2ccc(OCCN)cc2)C(=O)N[C@@H](Cc2ccc3ccccc3c2)C(=O)N[C@@](C)(CCCCN)C(=O)N[C@@H](CCCCNC(C)=O)C(=O)N[C@@H](CC(N)=O)C(=O)N[C@H](CCCCN)C(N)=O)NC1=O` [Peptide 19, Ac-[Abu]-Q-T-[W(7-Ph)]-[Lys(Ac)]-[Cys]-Phe[4-(2-aminoethoxy)]-[2-Nal]-[a-MeLys]-[Lys(Ac)]-N-[(D)Lys]-NH2] (Ac-[Abu(4-yl)]QT[Trp(7-Ph)]K(Ac)C[AEF][2Nal][αMeK]K(Ac)N[dK]-NH2; thioether 1-6), the half-life at 20 μM is > 24 h in series [1], 17.8 h in series [2], 21.8 h in series [3] and > 24 h in the series “Stability in rat plasma”.
